“And” between values parts separate entries of the source, which are not always exact repeats. Equal entries are not always repeated.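 How tested: cells in 96-well plates exposed to compound for 48 hours at five concentrations. GI50 = concentration required for 50% inhibition of growth. TGI: total growth inhibition.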
What was measured:
Assay in all cases: DTP human tumour cell line panel, 48 h
[1] = test system: T-47D breast
[2] = test system: A549 NSCLC
[3] = test system: SK-MEL-2 melanoma
[4] = test system: UACC-257 melanoma
[5] = test system: HCT-116 colon
[6] = test system: OVCAR-3 ovarian
[7] = test system: CAKI-1 renal
[8] = test system: SK-MEL-28 melanoma
[9] = test system: IGROV1 ovarian
[10] = test system: NCI-H522 lung

SMILES	TGI [1]	TGI [2] [µM]	TGI [3] [µM]	TGI [4] [µM]	TGI [5] [µM]	TGI [6]	TGI [7] [µM]	TGI [8] [µM]	TGI [9] [µM]	TGI [10] [µM]	GI50 [1] [µM]	GI50 [3] [µM]	GI50 [5] [µM]	GI50 [6] [µM]	GI50 [9] [µM]	GI50 [10] [µM]
O=C(NCCCNCCCCNCCCNC(=O)C(F)(F)F)C(F)(F)F	> 100 µM	> 100	> 100	> 100	> 100	> 100 µM	40.4	> 100	> 100	> 100	–	–	–	–	–	–
CC(C)(C)c1ccc2c(c1)OCc1n[nH]c(n1)COc1cc(C(C)(C)C)ccc1OCCOCCO2	12.4 µM	14.3	5.27	8	15.5	7.47 µM	14.6	9.52	23.2	9.07	–	–	–	–	–	–
O=[N+]([O-])c1ccc2nc3c(nc2c1)-c1c2ccccc2cc2cccc-3c12	4.11 µM	> 100	90	> 94.6	> 100	51.7 µM	> 40.7	> 100	> 28.4	7.85	–	–	–	–	–	–
Cc1cc2c(cc1Cl)SC(NNc1cnc3ccccc3n1)=NS2(=O)=O	> 100 µM	> 100	–	> 100	> 100	> 100 µM	> 100	> 100	> 100	> 100	–	–	–	–	–	–
O=C1NN=C(c2c[nH]c3ccccc23)CC1NCc1ccccc1 (centres undefined)	> 100 µM	> 100	> 100	> 100	> 100	> 100 µM	> 100	> 100	> 100	> 100	–	–	–	–	–	–
CCOC(=O)Cc1nn2c(=O)cc(C)nc2s1	> 100 µM	> 100	> 100	> 100	> 100	> 100 µM	> 100	> 100	> 100	> 100	–	–	–	–	–	–
Cc1ccsc1C(=S)Nc1ccc(Cl)c(C(=O)OC(C(C)C)C(C)C)c1	> 100 µM	> 100	25.8	> 100	75.5	33.5 µM	59.8	> 100	> 100	81.8	–	–	–	–	–	–
CC12CCC(C/C1=N\NC(N)=O)C2(C)C (centres undefined)	> 100 µM	> 100	> 100	> 100	> 100	> 100 µM	> 100	> 100	> 100	> 100	–	–	–	–	–	–
COC(=O)c1cc(C(=O)OC)cc(-c2ccc3c(c2)-c2nc4c(c(-c5ccc(OC)cc5)c2CC3)CCc2ccc(-c3cc(C(=O)OC)cc(C(=O)OC)c3)cc2-4)c1	> 100 µM	> 100	> 100	> 100	> 100	> 100 µM	> 100	> 100	–	> 100	–	–	–	–	–	–
Brc1ccc2c(c1)-c1nc3c(cc1CC2)CCc1ccc(Br)cc1-3	> 100 µM	> 100	> 100	> 100	> 100	> 100 µM	> 100	> 100	> 100	> 100	–	–	–	–	–	–
CC(O)(C(=O)N(O)c1ccc(Cl)cc1)c1ccc(Cl)cc1 (centres undefined)	> 100 µM	> 100	50.1	65.1	96.1	72.8 µM	83.6	> 100	> 100	46.1	–	–	–	–	–	–
COC(=O)c1sc2ncc3c(c2c1N)CC(C)CC3 (centres undefined)	> 100 µM	> 100	> 100	> 100	> 100	> 100 µM	> 100	> 100	> 100	> 100	–	–	–	–	–	–
COCC(=O)OC1CCn2c1nc1c2C(=O)C(C)=C(NC(C)=O)C1=O (centres undefined)	5.51 µM and 2.68 µM	47.8	13.5	9.08	10.4	5.23 µM and 4.82 µM	32.3	28.6	32.7	14.3	1.03	5.34	4.08	1.9	4.3	5.52
COP(=O)(CC(=O)C1OC(OCc2ccccc2)C(OCc2ccccc2)C(OCc2ccccc2)C1OCc1ccccc1)OC (centres undefined)	41.9 µM	> 100	11	43.9	> 100	> 100 µM	19.5	> 100	> 100	> 100	–	–	–	–	–	–
O=C(O)c1cc2ccccc2c(S(=O)(=O)O)c1O	> 100 µM	> 100	> 100	> 100	> 100	> 100 µM	> 100	> 100	> 100	> 100	–	–	–	–	–	–
Cc1ccc2c(c1)C(=O)/C(=C\c1ccc(Cl)cc1)CCS2(=O)=O	9.4 µM	> 58.8	61	7.23	3.51	19.5 µM	7.82	13.5	7.56	3.28	–	–	–	–	–	–
COn1cc(CO)c2ccccc21	> 100 µM	> 100	> 100	> 70.8	> 100	> 100 µM	> 54.8	> 100	> 100	72.9	–	–	–	–	–	–
COc1ccc(CCCCl)c(C2=NCCc3ccccc32)c1	> 100 µM	> 100	> 100	> 100	> 100	> 100 µM	> 100	> 100	> 100	> 100	–	–	–	–	–	–
COc1cc(/C=C/c2cc(=O)cc(/C=C/c3ccc(O)c(OC)c3)o2)ccc1O	> 93.3 µM	> 100	> 100	> 100	> 100	> 100 µM	> 100	> 100	> 100	> 100	–	–	–	–	–	–
Cc1ccc(C(=O)c2[nH]c(Nc3cc(C)ccn3)c(C(=S)Nc3ccccc3)c2N)cc1	> 100 µM	> 100	> 100	> 100	> 100	> 100 µM	> 100	> 100	> 100	> 100	–	–	–	–	–	–

— PubChem BioAssay (NCI)
